Measured values from patent publication US11008323B2, “Substituted tricyclic 1,4-benzodiazepinone derivatives as allosteric modulators of group II metabotropic glutamate receptors” (Domain Therapeutics, priority 2015, dated 2021).

molecular target: T1, human mGluR3 (hmGluR3) (Homo sapiens, UniProt Q14832); assay: Human mGluR3 positive allosteric modulator evaluation using Ca++ functional assay; assay type: cell-based; conditions: hmGluR3 transiently over-expressed in HEK-293 cells; stimulated by EC50 glutamate concentration; intracellular Ca2+ (Fluo4AM, FLIPR Tetra)
T1 construct: expressed in transfected cells; host or cells: HEK-293 cells, transient co-transfection by electroporation
T1 sequence (Q14832 23-879): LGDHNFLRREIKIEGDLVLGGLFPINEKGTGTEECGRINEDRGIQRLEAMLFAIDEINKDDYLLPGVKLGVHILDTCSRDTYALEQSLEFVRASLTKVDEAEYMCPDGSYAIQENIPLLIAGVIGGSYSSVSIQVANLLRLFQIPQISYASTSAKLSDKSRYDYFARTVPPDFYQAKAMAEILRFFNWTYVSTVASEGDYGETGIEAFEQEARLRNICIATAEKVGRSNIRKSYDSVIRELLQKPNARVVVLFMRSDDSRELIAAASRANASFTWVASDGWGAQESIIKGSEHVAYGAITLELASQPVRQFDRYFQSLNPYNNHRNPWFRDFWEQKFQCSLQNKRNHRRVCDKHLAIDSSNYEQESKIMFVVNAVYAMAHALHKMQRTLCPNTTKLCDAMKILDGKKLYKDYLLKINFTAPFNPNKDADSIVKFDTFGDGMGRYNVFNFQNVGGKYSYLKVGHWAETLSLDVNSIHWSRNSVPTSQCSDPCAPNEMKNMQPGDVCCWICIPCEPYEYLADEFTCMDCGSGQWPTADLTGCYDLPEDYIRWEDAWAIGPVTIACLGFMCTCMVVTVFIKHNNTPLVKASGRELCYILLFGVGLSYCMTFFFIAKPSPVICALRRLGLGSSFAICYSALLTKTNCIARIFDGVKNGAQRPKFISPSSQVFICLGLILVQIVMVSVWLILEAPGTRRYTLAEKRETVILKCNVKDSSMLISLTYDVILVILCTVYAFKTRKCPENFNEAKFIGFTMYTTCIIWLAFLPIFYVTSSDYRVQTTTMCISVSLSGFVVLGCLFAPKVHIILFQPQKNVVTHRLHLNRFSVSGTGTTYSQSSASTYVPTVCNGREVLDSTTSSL
Procedure: Compounds of the present invention were tested successively for their agonist and positive allosteric modulator activities on human mGluR3 (hmGluR3) transiently over-expressed in HEK-293 cells. Compounds exert agonist activity if they are able to activate hmGluR3 by themselves, i.e., in absence of the endogenous agonist glutamate; and they exert positive allosteric modulator activity if they increase the action of the endogenous agonist glutamate.
HEK-293 cells were maintained in Modified Eagle's Medium supplemented with 10% Foetal Calf Serum, 1% Penicillin/Streptomycin and 1% non-essential amino acids at 37° C./5% CO2.
Cells were co-transfected by electroporation with four DNA plasmids encoding hmGluR3, a chimeric G protein allowing redirection of the activation signal toward intracellular calcium pathway, and two glutamate transporters so as to decrease extracellular glutamate levels and avoid receptor desensitization (Brabet I et al., Neuropharmacology 37(8), 1043-51, 1998). After transfection, cells were seeded in 75 cm^2 culture flasks, and cultured for 24 h.
Receptor activity was detected by changes in intracellular calcium measured using the fluorescent Ca^2+ sensitive dye, Fluo4AM (Molecular Probes).
The day of the assay, medium was aspirated and replaced during 3 hrs by freshly prepared buffer B (HBSS 1×, Hepes 20 mM, MgSO4-7H2O 1 mM, Na2CO3 3.3 mM, CaCl2-2H2O 1.3 mM, 0.5% BSA, Probenecid 2.5 mM). Then, cells were loaded at 37° C./5% CO2 for 1.5 hrs with buffer B containing 1 μM Fluo4AM, 0.1 mg/mL Pluronic Acid, 7 μg/mL Glutamate Pyruvate Transaminase and 2 mM sodium pyruvate. Afterwards cells were washed with buffer B. Cells were then detached from the 75 cm^2 culture flasks with Accutase® (5 min incubation at 37° C.), centrifuged (5 min at 840 rpm), resuspended in buffer B and finally seeded at a density of 30,000 cells/well in black-walled clear-bottom 384-well plates. Addition of compounds on cells and intracellular Ca^2+ measurements (excitation 485 nm, emission 525 nm) were performed by the fluorescence microplate reader FLIPR Tetra (Molecular Devices).
Agonist and positive allosteric modulator activities of compounds were consecutively evaluated on the same cells plate. Agonist activity was first tested during 10 min with the addition of compound alone on the cells. Then, the cells were stimulated by an EC50 glutamate concentration and fluorescence was recorded for additional 3 min. EC50 glutamate concentration is the concentration giving 50% of the maximal glutamate response. Agonist and/or positive allosteric modulator activity(ies) were evaluated in comparison to basal signal or signal evoked by EC50 glutamate concentration alone, respectively.
For potency determination, a dose-response test was performed using 20 concentrations of each compound of the invention. Dose-response curves were fitted using the sigmoïdal dose-response (variable slope) analysis in XLfit Scientific Curve Fitting for Excel (IDBS). EC50 of agonist/EC50 of positive allosteric modulator activity(ies) were calculated. Dose-response experiments were all performed in duplicate, two times independently.

SMILES	EC50 [nM]
CN1C(=O)c2cc(-c3ccccc3)cn2-c2cc(-c3cncnc3)ccc2C12CC2 [Example 104, 5-Methyl-2-phenyl-9-(pyrimidin-5-yl)-spiro[benzo[f]pyrrolo[1,2-a][1,4]diazepine-6,1′-cyclopropan]-4(5H)-one]	100 to 1000
Cc1cnccc1-c1ccc2c(c1)-n1cccc1C(=O)N(C)C21CC1 [Example 38, 5-Methyl-9-(3-methylpyridin-4-yl)-spiro[benzo[f]pyrrolo[1,2-a][1,4]diazepine-6,1′-cyclopropan]-4(5H)-one]	100 to 1000
CN1C(=O)c2cccn2-c2cc(-c3ccncc3)ccc2C12CC2 [Example 22, 5-Methyl-9-(pyridin-4-yl)-spiro[benzo[f]pyrrolo[1,2-a][1,4]diazepine-6,1′-cyclopropan]-4(5H)-one]	100 to 1000
Cc1ncccc1-c1ccc2c(c1)-n1nccc1C(=O)N(C)C2 [Example 217, 5-Methyl-9-(2-methylpyridin-3-yl)-5,6-dihydro-4H-benzo[f]pyrazolo[1,5-a][1,4]diazepin-4-one]	> 1000
CN(C)c1ccc(-c2ccc3c(c2)-n2cc(-c4ccccc4)cc2C(=O)N(C)C32CC2)cn1 [Example 114, 5-Methyl-2-phenyl-9-(6-dimethylamino-pyridin-3-yl)-spiro[benzo[f]pyrrolo[1,2-a][1,4]diazepine-6,1′-cyclopropan]-4(5H)-one]	< 100
Cc1ncccc1-c1cc2c(cc1F)C1(CC1)N(C)C(=O)c1cccn1-2 [Example 77, 8-Fluoro-5-methyl-9-(2-methyl-pyridin-3-yl)-spiro[benzo[f]pyrrolo[1,2-a][1,4]diazepine-6,1′-cyclopropan]-4(5H)-one]	100 to 1000
Cc1ccnc(C)c1-c1ccc2c(c1)-n1cccc1C(=O)N(C)C21CC1 [Example 65, 5-Methyl-9-(2,4-dimethylpyridin-3-yl)-spiro[benzo[f]pyrrolo[1,2-a][1,4]diazepine-6,1′-cyclopropan]-4(5H)-one]	> 1000
CN1C(=O)c2cccn2-c2cc(-c3cc(F)ccn3)ccc2C12CC2 [Example 57, 5-Methyl-9-(4-fluoropyridin-2-yl)-spiro[benzo[f]pyrrolo[1,2-a][1,4]diazepine-6,1′-cyclopropan]-4(5H)-one]	100 to 1000
CN1C(=O)c2cc(-c3ccccc3)nn2-c2cc(-c3ccc(Cl)cc3)ccc2C12CC2 [Example 135, 9-(4-Chloro-phenyl)-5-methyl-2-phenyl-spiro[benzo[f]pyrazolo[1,5-a][1,4]diazepine-6,1′-cyclopropan]-4(5H)-one]	> 1000
CN1C(=O)c2cc(-c3ccccc3)nn2-c2cc(-c3cccc(Cl)c3)ccc2C12CC2 [Example 130, 9-(3-Chloro-phenyl)-5-methyl-2-phenyl-spiro[benzo[f]pyrazolo[1,5-a][1,4]diazepine-6,1′-cyclopropan]-4(5H)-one]	100 to 1000
Cc1cc(-c2ccc3c(c2)-n2nc(-c4ccccc4)cc2C(=O)N(C)C32CC2)cc(C)n1 [Example 121, 9-(2,6-Dimethyl-pyridin-4-yl)-5-methyl-2-phenyl-spiro[benzo[f]pyrazolo[1,5-a][1,4]diazepine-6,1′-cyclopropan]-4(5H)-one]	100 to 1000
CN1C(=O)c2cccn2-c2ccc(Br)cc2C12CC2 [Example 13, 8-Bromo-5-methyl-spiro[benzo[f]pyrrolo[1,2-a][1,4]diazepine-6,1′-cyclopropan]-4(5H)-one]	> 1000
CN1C(=O)c2cc(-c3ccccc3)cn2-c2cc(-c3ccc(N)nc3)ccc2C12CC2 [Example 96, 5-Methyl-2-phenyl-9-(6-amino-pyridin-3-yl)-spiro[benzo[f]pyrrolo[1,2-a][1,4]diazepine-6,1′-cyclopropan]-4(5H)-one]	100 to 1000
CCN1Cc2ccc(-c3cccnc3C)cc2-n2cc(-c3ccccc3)nc2C1=O [Example 167, 5-Ethyl-9-(2-methylpyridin-3-yl)-2-phenyl-5,6-dihydro-4H-benzo[f]imidazo[1,2-a][1,4]diazepin-4-one]	> 1000
CN1C(=O)c2cc(-c3ccccc3)cn2-c2cc(-c3cccnn3)ccc2C12CC2 [Example 109, 5-Methyl-2-phenyl-9-pyridazin-3-yl-spiro[benzo[f]pyrrolo[1,2-a][1,4]diazepine-6,1′-cyclopropan]-4(5H)-one]	100 to 1000
CN1C(=O)c2cc(-c3ccccc3)cn2-c2cc(-c3ccccn3)ccc2C12CC2 [Example 111, 5-Methyl-2-phenyl-9-(pyridin-2-yl)-spiro[benzo[f]pyrrolo[1,2-a][1,4]diazepine-6,1′-cyclopropan]-4(5H)-one]	< 100
CC1c2ccc(-c3ccc(N(C)C)nc3)cc2-n2cccc2C(=O)N1C (stereo not shown) [Example 219, 9-(6-Dimethylamino-pyridin-3-yl)-5,6-dimethyl-5,6-dihydro-benzo[f]pyrrolo[1,2-a][1,4]diazepin-4-one]	< 100
Cc1cc(-c2ccc3c(c2)-n2cc(-c4ccccc4)cc2C(=O)N(C)C32CC2)cc(C)n1 [Example 97, 5-Methyl-2-phenyl-9-(2,6-dimethyl-pyridin-4-yl)-spiro[benzo[f]pyrrolo[1,2-a][1,4]diazepine-6,1′-cyclopropan]-4(5H)-one]	100 to 1000
CCc1ccc(-c2ccc3c(c2)-n2cc(-c4ccccc4)cc2C(=O)N(C)C32CC2)cn1 [Example 112, 5-methyl-2-phenyl-9-(6-ethylpyridin-3-yl)-spiro[benzo[f]pyrrolo[1,2-a][1,4]diazepine-6,1′-cyclopropan]-4(5H)-one]	< 100
CN1C(=O)c2cc(-c3ccccc3)nn2-c2cc(-c3ccc(N)nc3)ccc2C12CC2 [Example 127, 9-(6-Amino-pyridin-3-yl)-5-methyl-2-phenyl-spiro[benzo[f]pyrazolo[1,5-a][1,4]diazepine-6,1′-cyclopropan]-4(5H)-one]	< 100

The next lines start with the values.

EC50 [nM]	SMILES
< 100	CCc1cc2n(c1)-c1cc(-c3cccnc3C)ccc1C1(CC1)N(C)C2=O [Example 197]
< 100	Cc1ncccc1-c1ccc2c(c1)-n1cc(-c3cccc(F)c3)cc1C(=O)N(C)C21CC1 [Example 152]
< 100	Cc1cc2n(c1)-c1cc(-c3cccnc3C)ccc1C1(CC1)N(C)C2=O [Example 144]
< 100	CCc1ncccc1-c1ccc2c(c1)-n1cc(COC)cc1C(=O)N(C)C21CC1 [Example 206]
< 100	Cc1ncccc1-c1ccc2c(c1)-n1cc(-c3cc[nH]n3)cc1C(=O)N(C)C21CC1 [Example 146]
< 100	Cc1ncccc1-c1ccc2c(c1)-n1cc(-c3ccnn3C)cc1C(=O)N(C)C21CC1 [Example 160]
< 100	Cc1ncccc1-c1ccc2c(c1)-n1cc(-c3cccnc3)cc1C(=O)N(C)C21CC1 [Example 143]
< 100	Cc1ncccc1-c1ccc2c(c1)-n1cc(-c3nccs3)cc1C(=O)N(C)C21CC1 [Example 157]
100 to 1000	Cc1ncccc1-c1ccc2c(c1)-n1cc(CC3CCCC3)cc1C(=O)N(C)C21CC1 [Example 196]
100 to 1000	CN1C(=O)c2cccn2-c2cc(-c3cccnc3C3CC3)ccc2C12CC2 [Example 62, 5-Methyl-9-(2-cyclopropylpyridin-3-yl)-spiro[benzo[f]pyrrolo[1,2-a][1,4]diazepine-6,1′-cyclopropan]-4(5H)-one]
100 to 1000	CC(=O)c1cc2n(c1)-c1cc(-c3cccnc3C)ccc1C1(CC1)N(C)C2=O [Example 195]
< 100	Cc1ncccc1-c1ccc2c(c1)-n1cc(C3CC3)cc1C(=O)N(C)C21CC1 [Example 155]
< 100	Cc1ncccc1-c1ccc2c(c1)-n1c(F)ccc1C(=O)N(C)C21CC1 [Example 81, 9-(2-Methyl-pyridin-3-yl)-1-fluoro-5-methyl-spiro[benzo[f]pyrrolo[1,2-a][1,4]diazepine-6,1′-cyclopropan]-4(5H)-one]
< 100	CCCc1ncccc1-c1ccc2c(c1)-n1cccc1C(=O)N(C)C21CC1 [Example 61, 5-Methyl-9-(2-propylpyridin-3-yl)-spiro[benzo[f]pyrrolo[1,2-a][1,4]diazepine-6,1′-cyclopropan]-4(5H)-one]
